Source: BigSolDB 2.1

## O=[N+]([O-])c1cccc2cccc([N+](=O)[O-])c12
In acetone, 273.15 K
  solubility (mole fraction): 0.0103
In acetone, 275.65 K
  solubility (mole fraction): 0.0113
In acetone, 278.15 K
  solubility (mole fraction): 0.0119
In acetone, 280.65 K
  solubility (mole fraction): 0.013
In acetone, 283.15 K
  solubility (mole fraction): 0.014
In acetone, 285.65 K
  solubility (mole fraction): 0.0152
In acetone, 288.15 K
  solubility (mole fraction): 0.0163
In acetone, 291.15 K
  solubility (mole fraction): 0.0177
In acetone, 293.15 K
  solubility (mole fraction): 0.0189
In acetone, 295.65 K
  solubility (mole fraction): 0.0205
In acetone, 298.15 K
  solubility (mole fraction): 0.0223
In acetone, 300.65 K
  solubility (mole fraction): 0.0243
In acetone, 303.15 K
  solubility (mole fraction): 0.0261
In acetone, 305.65 K
  solubility (mole fraction): 0.028
In acetone, 308.15 K
  solubility (mole fraction): 0.0306
In acetonitrile, 273.15 K
  solubility (mole fraction): 0.00295
In acetonitrile, 275.65 K
  solubility (mole fraction): 0.00331
In acetonitrile, 278.15 K
  solubility (mole fraction): 0.0039
In acetonitrile, 280.65 K
  solubility (mole fraction): 0.00465
In acetonitrile, 283.15 K
  solubility (mole fraction): 0.00528
In acetonitrile, 285.65 K
  solubility (mole fraction): 0.00597
In acetonitrile, 288.15 K
  solubility (mole fraction): 0.00661
In acetonitrile, 291.15 K
  solubility (mole fraction): 0.00761
In acetonitrile, 293.15 K
  solubility (mole fraction): 0.00821
In acetonitrile, 295.65 K
  solubility (mole fraction): 0.00921
In acetonitrile, 298.15 K
  solubility (mole fraction): 0.0102
In acetonitrile, 300.65 K
  solubility (mole fraction): 0.0112
In acetonitrile, 303.15 K
  solubility (mole fraction): 0.012
In acetonitrile, 305.65 K
  solubility (mole fraction): 0.013
In acetonitrile, 308.15 K
  solubility (mole fraction): 0.014
In chloroform, 273.15 K
  solubility (mole fraction): 0.00311
In chloroform, 275.65 K
  solubility (mole fraction): 0.0035
In chloroform, 278.15 K
  solubility (mole fraction): 0.00382
In chloroform, 280.65 K
  solubility (mole fraction): 0.0042
In chloroform, 283.15 K
  solubility (mole fraction): 0.00473
In chloroform, 285.65 K
  solubility (mole fraction): 0.00508
In chloroform, 288.15 K
  solubility (mole fraction): 0.00561
In chloroform, 291.15 K
  solubility (mole fraction): 0.00601
In chloroform, 295.65 K
  solubility (mole fraction): 0.00732
In chloroform, 298.15 K
  solubility (mole fraction): 0.00787
In chloroform, 300.65 K
  solubility (mole fraction): 0.0084
In chloroform, 303.15 K
  solubility (mole fraction): 0.00923
In chloroform, 305.65 K
  solubility (mole fraction): 0.00983
In chloroform, 308.15 K
  solubility (mole fraction): 0.0107
In ethanol, 273.15 K
  solubility (mole fraction): 0.000242
In ethanol, 275.65 K
  solubility (mole fraction): 0.000267
In ethanol, 278.15 K
  solubility (mole fraction): 0.000294
In ethanol, 280.65 K
  solubility (mole fraction): 0.000323
In ethanol, 283.15 K
  solubility (mole fraction): 0.000351
In ethanol, 285.65 K
  solubility (mole fraction): 0.000385
In ethanol, 288.15 K
  solubility (mole fraction): 0.000427
In ethanol, 291.15 K
  solubility (mole fraction): 0.000484
In ethanol, 293.15 K
  solubility (mole fraction): 0.000529
In ethanol, 295.65 K
  solubility (mole fraction): 0.000584
In ethanol, 298.15 K
  solubility (mole fraction): 0.000646
In ethanol, 300.65 K
  solubility (mole fraction): 0.00071
In ethanol, 303.15 K
  solubility (mole fraction): 0.000789
In ethanol, 305.65 K
  solubility (mole fraction): 0.000878
In ethanol, 308.15 K
  solubility (mole fraction): 0.000994
In ethyl acetate, 273.15 K
  solubility (mole fraction): 0.00414
In ethyl acetate, 275.65 K
  solubility (mole fraction): 0.00446
In ethyl acetate, 278.15 K
  solubility (mole fraction): 0.00471
In ethyl acetate, 280.65 K
  solubility (mole fraction): 0.00522
In ethyl acetate, 283.15 K
  solubility (mole fraction): 0.00551
In ethyl acetate, 285.65 K
  solubility (mole fraction): 0.00607
In ethyl acetate, 288.15 K
  solubility (mole fraction): 0.00659
In ethyl acetate, 291.15 K
  solubility (mole fraction): 0.0072
In ethyl acetate, 293.15 K
  solubility (mole fraction): 0.00765
In ethyl acetate, 295.65 K
  solubility (mole fraction): 0.00822
In ethyl acetate, 300.65 K
  solubility (mole fraction): 0.00947
In ethyl acetate, 303.15 K
  solubility (mole fraction): 0.0102
In ethyl acetate, 305.65 K
  solubility (mole fraction): 0.011
In ethyl acetate, 308.15 K
  solubility (mole fraction): 0.0119
In isopropanol, 273.15 K
  solubility (mole fraction): 8.97e-05
In isopropanol, 275.65 K
  solubility (mole fraction): 0.000103
In isopropanol, 278.15 K
  solubility (mole fraction): 0.000126
In isopropanol, 280.65 K
  solubility (mole fraction): 0.000146
In isopropanol, 283.15 K
  solubility (mole fraction): 0.000173
In isopropanol, 285.65 K
  solubility (mole fraction): 0.000198
In isopropanol, 288.15 K
  solubility (mole fraction): 0.000224
In isopropanol, 291.15 K
  solubility (mole fraction): 0.000265
In isopropanol, 293.15 K
  solubility (mole fraction): 0.000296
In isopropanol, 295.65 K
  solubility (mole fraction): 0.000334
In isopropanol, 298.15 K
  solubility (mole fraction): 0.000382
In isopropanol, 300.65 K
  solubility (mole fraction): 0.00043
In isopropanol, 303.15 K
  solubility (mole fraction): 0.000482
In isopropanol, 305.65 K
  solubility (mole fraction): 0.000536
In isopropanol, 308.15 K
  solubility (mole fraction): 0.000605
In methanol, 273.15 K
  solubility (mole fraction): 0.000293
In methanol, 275.65 K
  solubility (mole fraction): 0.000327
In methanol, 278.15 K
  solubility (mole fraction): 0.000356
In methanol, 280.65 K
  solubility (mole fraction): 0.000398
In methanol, 283.15 K
  solubility (mole fraction): 0.000429
In methanol, 285.65 K
  solubility (mole fraction): 0.000485
In methanol, 288.15 K
  solubility (mole fraction): 0.000536
In methanol, 291.15 K
  solubility (mole fraction): 0.000599
In methanol, 293.15 K
  solubility (mole fraction): 0.000641
In methanol, 295.65 K
  solubility (mole fraction): 0.000696
In methanol, 298.15 K
  solubility (mole fraction): 0.000758
In methanol, 300.65 K
  solubility (mole fraction): 0.000821
In methanol, 303.15 K
  solubility (mole fraction): 0.000891
In methanol, 305.65 K
  solubility (mole fraction): 0.000971
In methanol, 308.15 K
  solubility (mole fraction): 0.00106
In n-butanol, 273.15 K
  solubility (mole fraction): 0.000155
In n-butanol, 275.65 K
  solubility (mole fraction): 0.000178
In n-butanol, 278.15 K
  solubility (mole fraction): 0.00021
In n-butanol, 280.65 K
  solubility (mole fraction): 0.000237
In n-butanol, 283.15 K
  solubility (mole fraction): 0.000272
In n-butanol, 285.65 K
  solubility (mole fraction): 0.000314
In n-butanol, 288.15 K
  solubility (mole fraction): 0.000356
In n-butanol, 291.15 K
  solubility (mole fraction): 0.000411
In n-butanol, 293.15 K
  solubility (mole fraction): 0.000449
In n-butanol, 295.65 K
  solubility (mole fraction): 0.000504
In n-butanol, 300.65 K
  solubility (mole fraction): 0.000623
In n-butanol, 303.15 K
  solubility (mole fraction): 0.00069
In n-butanol, 305.65 K
  solubility (mole fraction): 0.000759
In n-butanol, 308.15 K
  solubility (mole fraction): 0.000832
In toluene, 273.15 K
  solubility (mole fraction): 0.00119
In toluene, 275.65 K
  solubility (mole fraction): 0.00125
In toluene, 278.15 K
  solubility (mole fraction): 0.00138
In toluene, 280.65 K
  solubility (mole fraction): 0.00157
In toluene, 283.15 K
  solubility (mole fraction): 0.00171
In toluene, 285.65 K
  solubility (mole fraction): 0.00188
In toluene, 288.15 K
  solubility (mole fraction): 0.00205
In toluene, 291.15 K
  solubility (mole fraction): 0.00235
In toluene, 293.15 K
  solubility (mole fraction): 0.00255
In toluene, 295.65 K
  solubility (mole fraction): 0.0028
In toluene, 298.15 K
  solubility (mole fraction): 0.00309
In toluene, 300.65 K
  solubility (mole fraction): 0.00344
In toluene, 303.15 K
  solubility (mole fraction): 0.00382
In toluene, 305.65 K
  solubility (mole fraction): 0.00427
In toluene, 308.15 K
  solubility (mole fraction): 0.00468
